Legend:
[1] = system: TRZAW (Wheat); assay: Leaf treatment test, wheat; format: in vivo, Triticum aestivum L.; conditions: 14 days after treatment
Method: (§1) Seeds of rice, wheat, barley, corn, cotton, barnyard grass, common sorgum, large crabgrass and fall panicum were seeded at a pot with a surface area of 600 cm^2. […] 14 days after the treatment, the degree of damage to the plants was rated in % damage in comparison to the development of untreated control.

[2] = system: DIGSA (Large crabgrass); assay: Leaf treatment test, large crabgrass; format: in vivo, Digitaria Sanguinalis (L.) SCOP; conditions: 14 days after treatment
Method: as §1

[3] = system: ZEAMX (Corn); assay: Leaf treatment test, corn; format: in vivo, Zea mays L.; conditions: 14 days after treatment
Method: as §1

[4] = system: ORYSA (Rice); assay: Leaf treatment test, rice; format: in vivo, Oryza sativa L. cv. Dongjin; conditions: 14 days after treatment
Method: as §1

[5] = system: GOSHI (Cotton); assay: Leaf treatment test, cotton; format: in vivo, Gossypium; conditions: 14 days after treatment
Method: as §1

[6] = system: SORBI (Common sorgum); assay: Leaf treatment test, common sorgum; format: in vivo, Andropogon sorghum; conditions: 14 days after treatment
Method: as §1

[7] = system: ECHCG (Barnyard grass); assay: Leaf treatment test, barnyard grass; format: in vivo, Echinochloa crus-galli Beauv. var. caudata Kitagawa; conditions: leaf treatment at three leaves, 14 days after treatment
Method: as §1

[8] = system: PANDI (Fall panicum); assay: Leaf treatment test, fall panicum; format: in vivo, Panicum dichotomiflorum Michx; conditions: 14 days after treatment
Method: as §1

[9] = system: GLXMA (Soy bean); assay: Leaf treatment test, soy bean; format: in vivo, Glycine max (L.) MERR; conditions: 14 days after treatment

CC(Oc1ccc(Oc2nc3ccc(Cl)cc3o2)cc1)C(=O)N(C)c1cc(F)c(F)cc1F (centres unmarked) [Compound No. 3, 2-[4-(6-Chloro-2-benzoxazoyloxy)-phenoxy]propionic Acid-N-methyl-N-(2,4,5-trifluorophenyl)amide]
degree of damage to the plants (% damage) ([1]; treated amount 0.025 kg/ha): 0%
degree of damage to the plants (% damage) ([1]; treated amount 0.1 kg/ha): 0%
degree of damage to the plants (% damage) ([1]; treated amount 0.4 kg/ha): 0%
degree of damage to the plants (% damage) ([2]; treated amount 0.025 kg/ha): 30%
degree of damage to the plants (% damage) ([2]; treated amount 0.1 kg/ha): 90%
degree of damage to the plants (% damage) ([2]; treated amount 0.4 kg/ha): 100%
degree of damage to the plants (% damage) ([3]; treated amount 0.025 kg/ha): 0%
degree of damage to the plants (% damage) ([3]; treated amount 0.1 kg/ha): 0%
degree of damage to the plants (% damage) ([3]; treated amount 0.4 kg/ha): 0%
degree of damage to the plants (% damage) ([4]; treated amount 0.025 kg/ha): 0%
degree of damage to the plants (% damage) ([4]; treated amount 0.1 kg/ha): 0%
degree of damage to the plants (% damage) ([4]; treated amount 0.4 kg/ha): 10%
degree of damage to the plants (% damage) ([5]; treated amount 0.025 kg/ha): 0%
degree of damage to the plants (% damage) ([5]; treated amount 0.1 kg/ha): 0%
degree of damage to the plants (% damage) ([5]; treated amount 0.4 kg/ha): 0%
degree of damage to the plants (% damage) ([6]; treated amount 0.025 kg/ha): 40%
degree of damage to the plants (% damage) ([6]; treated amount 0.1 kg/ha): 100%
degree of damage to the plants (% damage) ([6]; treated amount 0.4 kg/ha): 100%
degree of damage to the plants (% damage) ([7]; treated amount 0.025 kg/ha): 0%
degree of damage to the plants (% damage) ([7]; treated amount 0.1 kg/ha): 60%
degree of damage to the plants (% damage) ([7]; treated amount 0.4 kg/ha): 95%
degree of damage to the plants (% damage) ([8]; treated amount 0.025 kg/ha): 0%
degree of damage to the plants (% damage) ([8]; treated amount 0.1 kg/ha): 0%
degree of damage to the plants (% damage) ([8]; treated amount 0.4 kg/ha): 0%
degree of damage to the plants (% damage) ([9]; treated amount 0.025 kg/ha): 0%
degree of damage to the plants (% damage) ([9]; treated amount 0.1 kg/ha): 0%
degree of damage to the plants (% damage) ([9]; treated amount 0.4 kg/ha): 10%

COc1ccc(N(C)C(=O)C(C)Oc2ccc(Oc3nc4ccc(Cl)cc4o3)cc2)c(F)c1 (centres unmarked) [Compound No. 11]
degree of damage to the plants (% damage) ([1]; treated amount 0.025 kg/ha): 0%
degree of damage to the plants (% damage) ([1]; treated amount 0.1 kg/ha): 0%
degree of damage to the plants (% damage) ([1]; treated amount 0.4 kg/ha): 0%
degree of damage to the plants (% damage) ([2]; treated amount 0.025 kg/ha): 95%
degree of damage to the plants (% damage) ([2]; treated amount 0.1 kg/ha): 95%
degree of damage to the plants (% damage) ([2]; treated amount 0.4 kg/ha): 95%
degree of damage to the plants (% damage) ([3]; treated amount 0.025 kg/ha): 0%
degree of damage to the plants (% damage) ([3]; treated amount 0.1 kg/ha): 0%
degree of damage to the plants (% damage) ([3]; treated amount 0.4 kg/ha): 0%
degree of damage to the plants (% damage) ([4]; treated amount 0.025 kg/ha): 0%
degree of damage to the plants (% damage) ([4]; treated amount 0.1 kg/ha): 0%
degree of damage to the plants (% damage) ([4]; treated amount 0.4 kg/ha): 0%
degree of damage to the plants (% damage) ([5]; treated amount 0.025 kg/ha): 0%
degree of damage to the plants (% damage) ([5]; treated amount 0.1 kg/ha): 0%
degree of damage to the plants (% damage) ([5]; treated amount 0.4 kg/ha): 0%
degree of damage to the plants (% damage) ([6]; treated amount 0.025 kg/ha): 0%
degree of damage to the plants (% damage) ([6]; treated amount 0.1 kg/ha): 20%
degree of damage to the plants (% damage) ([6]; treated amount 0.4 kg/ha): 70%
degree of damage to the plants (% damage) ([7]; treated amount 0.025 kg/ha): 0%
degree of damage to the plants (% damage) ([7]; treated amount 0.1 kg/ha): 0%
degree of damage to the plants (% damage) ([7]; treated amount 0.4 kg/ha): 40%
degree of damage to the plants (% damage) ([8]; treated amount 0.1 kg/ha): 20%
degree of damage to the plants (% damage) ([8]; treated amount 0.4 kg/ha): 40%
degree of damage to the plants (% damage) ([9]; treated amount 0.025 kg/ha): 0%
degree of damage to the plants (% damage) ([9]; treated amount 0.1 kg/ha): 0%
degree of damage to the plants (% damage) ([9]; treated amount 0.4 kg/ha): 0%

Cc1ccc(F)c(N(C)C(=O)C(C)Oc2ccc(Oc3nc4ccc(Cl)cc4o3)cc2)c1 (centres unmarked) [Compound No. 7]
degree of damage to the plants (% damage) ([1]; treated amount 0.025 kg/ha): 0%
degree of damage to the plants (% damage) ([1]; treated amount 0.1 kg/ha): 0%
degree of damage to the plants (% damage) ([1]; treated amount 0.4 kg/ha): 0%
degree of damage to the plants (% damage) ([2]; treated amount 0.025 kg/ha): 100%
degree of damage to the plants (% damage) ([2]; treated amount 0.1 kg/ha): 100%
degree of damage to the plants (% damage) ([2]; treated amount 0.4 kg/ha): 100%
degree of damage to the plants (% damage) ([3]; treated amount 0.025 kg/ha): 0%
degree of damage to the plants (% damage) ([3]; treated amount 0.1 kg/ha): 0%
degree of damage to the plants (% damage) ([3]; treated amount 0.4 kg/ha): 0%
degree of damage to the plants (% damage) ([4]; treated amount 0.025 kg/ha): 0%
degree of damage to the plants (% damage) ([4]; treated amount 0.1 kg/ha): 0%
degree of damage to the plants (% damage) ([4]; treated amount 0.4 kg/ha): 0%
degree of damage to the plants (% damage) ([5]; treated amount 0.025 kg/ha): 0%
degree of damage to the plants (% damage) ([5]; treated amount 0.1 kg/ha): 0%
degree of damage to the plants (% damage) ([5]; treated amount 0.4 kg/ha): 0%
degree of damage to the plants (% damage) ([6]; treated amount 0.025 kg/ha): 10%
degree of damage to the plants (% damage) ([6]; treated amount 0.1 kg/ha): 95%
degree of damage to the plants (% damage) ([6]; treated amount 0.4 kg/ha): 100%
degree of damage to the plants (% damage) ([7]; treated amount 0.025 kg/ha): 20%
degree of damage to the plants (% damage) ([7]; treated amount 0.1 kg/ha): 40%
degree of damage to the plants (% damage) ([7]; treated amount 0.4 kg/ha): 40%
degree of damage to the plants (% damage) ([8]; treated amount 0.025 kg/ha): 100%
degree of damage to the plants (% damage) ([8]; treated amount 0.1 kg/ha): 100%
degree of damage to the plants (% damage) ([8]; treated amount 0.4 kg/ha): 100%
degree of damage to the plants (% damage) ([9]; treated amount 0.025 kg/ha): 0%
degree of damage to the plants (% damage) ([9]; treated amount 0.1 kg/ha): 0%
degree of damage to the plants (% damage) ([9]; treated amount 0.4 kg/ha): 10%

CC(Oc1ccc(Oc2nc3ccc(Cl)cc3o2)cc1)C(=O)N(C)c1c(F)cccc1F (centres unmarked) [Compound No. 4, 2-[4-(6-Chloro-2-benzoxazoyloxy)-phenoxy]propionic Acid-N-methyl-N-(2,6-difluoro-phenyl)amide]
degree of damage to the plants (% damage) ([1]; treated amount 0.025 kg/ha): 0%
degree of damage to the plants (% damage) ([1]; treated amount 0.1 kg/ha): 0%
degree of damage to the plants (% damage) ([1]; treated amount 0.4 kg/ha): 0%
degree of damage to the plants (% damage) ([2]; treated amount 0.025 kg/ha): 90%
degree of damage to the plants (% damage) ([2]; treated amount 0.1 kg/ha): 100%
degree of damage to the plants (% damage) ([2]; treated amount 0.4 kg/ha): 100%
degree of damage to the plants (% damage) ([3]; treated amount 0.025 kg/ha): 10%
degree of damage to the plants (% damage) ([3]; treated amount 0.1 kg/ha): 40%
degree of damage to the plants (% damage) ([3]; treated amount 0.4 kg/ha): 100%
degree of damage to the plants (% damage) ([4]; treated amount 0.025 kg/ha): 0%
degree of damage to the plants (% damage) ([4]; treated amount 0.1 kg/ha): 20%
degree of damage to the plants (% damage) ([4]; treated amount 0.4 kg/ha): 30%
degree of damage to the plants (% damage) ([5]; treated amount 0.025 kg/ha): 0%
degree of damage to the plants (% damage) ([5]; treated amount 0.1 kg/ha): 0%
degree of damage to the plants (% damage) ([5]; treated amount 0.4 kg/ha): 0%
degree of damage to the plants (% damage) ([6]; treated amount 0.025 kg/ha): 95%
degree of damage to the plants (% damage) ([6]; treated amount 0.1 kg/ha): 100%
degree of damage to the plants (% damage) ([6]; treated amount 0.4 kg/ha): 100%
degree of damage to the plants (% damage) ([7]; treated amount 0.025 kg/ha): 80%
degree of damage to the plants (% damage) ([7]; treated amount 0.1 kg/ha): 95%
degree of damage to the plants (% damage) ([7]; treated amount 0.4 kg/ha): 100%
degree of damage to the plants (% damage) ([8]; treated amount 0.025 kg/ha): 40%
degree of damage to the plants (% damage) ([8]; treated amount 0.1 kg/ha): 100%
degree of damage to the plants (% damage) ([8]; treated amount 0.4 kg/ha): 100%
degree of damage to the plants (% damage) ([9]; treated amount 0.025 kg/ha): 0%
degree of damage to the plants (% damage) ([9]; treated amount 0.1 kg/ha): 0%
degree of damage to the plants (% damage) ([9]; treated amount 0.4 kg/ha): 20%

CC(Oc1ccc(Oc2nc3ccc(Cl)cc3o2)cc1)C(=O)N(C)c1cc(F)ccc1F (centres unmarked) [Compound No. 9]
degree of damage to the plants (% damage) ([1]; treated amount 0.025 kg/ha): 0%
degree of damage to the plants (% damage) ([1]; treated amount 0.1 kg/ha): 0%
degree of damage to the plants (% damage) ([1]; treated amount 0.4 kg/ha): 0%
degree of damage to the plants (% damage) ([2]; treated amount 0.025 kg/ha): 100%
degree of damage to the plants (% damage) ([2]; treated amount 0.1 kg/ha): 100%
degree of damage to the plants (% damage) ([2]; treated amount 0.4 kg/ha): 100%
degree of damage to the plants (% damage) ([3]; treated amount 0.025 kg/ha): 0%
degree of damage to the plants (% damage) ([3]; treated amount 0.1 kg/ha): 0%
degree of damage to the plants (% damage) ([3]; treated amount 0.4 kg/ha): 100%
degree of damage to the plants (% damage) ([4]; treated amount 0.025 kg/ha): 0%
degree of damage to the plants (% damage) ([4]; treated amount 0.1 kg/ha): 0%
degree of damage to the plants (% damage) ([4]; treated amount 0.4 kg/ha): 20%
degree of damage to the plants (% damage) ([5]; treated amount 0.025 kg/ha): 0%
degree of damage to the plants (% damage) ([5]; treated amount 0.1 kg/ha): 0%
degree of damage to the plants (% damage) ([5]; treated amount 0.4 kg/ha): 0%
degree of damage to the plants (% damage) ([6]; treated amount 0.025 kg/ha): 90%
degree of damage to the plants (% damage) ([6]; treated amount 0.1 kg/ha): 100%
degree of damage to the plants (% damage) ([6]; treated amount 0.4 kg/ha): 100%
degree of damage to the plants (% damage) ([7]; treated amount 0.025 kg/ha): 70%
degree of damage to the plants (% damage) ([7]; treated amount 0.1 kg/ha): 80%
degree of damage to the plants (% damage) ([7]; treated amount 0.4 kg/ha): 80%
degree of damage to the plants (% damage) ([8]; treated amount 0.025 kg/ha): 90%
degree of damage to the plants (% damage) ([8]; treated amount 0.1 kg/ha): 100%
degree of damage to the plants (% damage) ([8]; treated amount 0.4 kg/ha): 100%
degree of damage to the plants (% damage) ([9]; treated amount 0.025 kg/ha): 0%
degree of damage to the plants (% damage) ([9]; treated amount 0.1 kg/ha): 0%
degree of damage to the plants (% damage) ([9]; treated amount 0.4 kg/ha): 0%

Source: patent publication US6486098B1, “Herbicidal phenoxypropionic acid N-alkyl-N-2-fluorophenyl amide compounds” (Dongbu Hannong Chemical Co. Ltd., priority 1999, dated 2002)
